According to article PMC11114115 (Molecular Pharmacology, 2024):

Molecular target: human M3R (M3 muscarinic acetylcholine receptor) (Homo sapiens, UniProt P20309)
Assay: cell-based

Sequence of human M3R (M3 muscarinic acetylcholine receptor) (P20309 whole entry): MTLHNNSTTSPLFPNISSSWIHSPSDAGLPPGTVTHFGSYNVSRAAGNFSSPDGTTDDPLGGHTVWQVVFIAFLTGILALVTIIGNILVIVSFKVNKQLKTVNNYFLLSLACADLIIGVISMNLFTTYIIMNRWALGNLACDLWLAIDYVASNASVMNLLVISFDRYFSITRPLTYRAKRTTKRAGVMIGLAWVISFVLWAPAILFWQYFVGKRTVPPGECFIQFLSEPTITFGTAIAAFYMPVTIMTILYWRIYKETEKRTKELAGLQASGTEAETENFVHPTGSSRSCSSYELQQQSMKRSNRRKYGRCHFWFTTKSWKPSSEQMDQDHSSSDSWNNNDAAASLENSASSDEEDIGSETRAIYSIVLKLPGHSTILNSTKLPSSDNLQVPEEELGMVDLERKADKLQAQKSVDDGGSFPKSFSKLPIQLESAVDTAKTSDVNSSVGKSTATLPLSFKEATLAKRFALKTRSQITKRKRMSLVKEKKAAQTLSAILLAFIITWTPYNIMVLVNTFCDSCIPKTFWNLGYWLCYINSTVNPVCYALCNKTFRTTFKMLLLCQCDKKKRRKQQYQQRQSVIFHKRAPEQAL

C[N+](C)(C)CC#CCN1CCCC1=O [Oxotremorine-M]
EC50: 12.6 nM
